Assay results from patent EP4691482A1, “LONG-ACTING CALCITONIN ANALOG” (Chengdu Aoda Biotechnology Co., Ltd., priority 2023, dated 2024).

Target: T1, calcitonin receptors (CTR) (Homo sapiens, UniProt P30988)
T1 construct: expressed in transfected cells; host or cells: cAMP Hunter HEK293-CT-R Gs cell line (HEK293, stably transfected)
T1 sequence (P30988 25-474): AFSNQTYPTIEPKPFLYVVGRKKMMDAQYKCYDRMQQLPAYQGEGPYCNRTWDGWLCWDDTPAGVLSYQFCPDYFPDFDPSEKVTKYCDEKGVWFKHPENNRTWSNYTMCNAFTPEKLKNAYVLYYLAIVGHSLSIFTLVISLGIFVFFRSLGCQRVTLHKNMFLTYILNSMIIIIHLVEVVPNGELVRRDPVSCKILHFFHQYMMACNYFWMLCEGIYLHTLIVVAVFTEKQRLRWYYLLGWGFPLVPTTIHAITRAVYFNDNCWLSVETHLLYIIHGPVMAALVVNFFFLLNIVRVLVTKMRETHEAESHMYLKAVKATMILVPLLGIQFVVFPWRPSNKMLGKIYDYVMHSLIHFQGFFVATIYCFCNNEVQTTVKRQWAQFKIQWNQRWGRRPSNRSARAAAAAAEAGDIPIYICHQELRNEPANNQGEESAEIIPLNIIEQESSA
Test: cAMP determination (HTRF, cAMP Dynamic 2 Kit) in cAMP Hunter HEK293-CT-R Gs cell line
Type: cell-based
Details: for EC50: HEK293 cell line stably expressing CT-R, intracellular cAMP, HTRF
Text: Upon activation by a ligand, Gas-coupled GPCRs can upregulate intracellular cAMP level, and cAMP, as a second messenger, can mediate a series of cellular responses. The cAMP Hunter HEK293-CT-R Gs cell line, which overexpresses Gas-coupled calcitonin receptors (CTR), was used. The binding of calcitonin (or an analog thereof) to the overexpressed CTR upregulates intracellular cAMP level. The amount of intracellular cAMP produced after activation by the calcitonin (or an analog thereof) was detected using a cAMP Dynamic 2 Kit to evaluate the biological activity of the calcitonin (or an analog thereof). HEK293 cell line stably expressing CT-R was used. Stably transfected cells were stimulated with various concentrations of agonists. The time-resolved fluorescence resonance energy signal from the cells after stimulation with different doses was measured using HTRF technology, from which the biological activity of the agonist was subsequently calculated.

| EC50 | Relative Activity% (relative to Salmon Calcitonin = 100.0, HEK293 CT-R cAMP) | Structure (SMILES) |
| --- | --- | --- |
| 3.5 pM | – | CC(C)C[C@H](NC(=O)[C@H](CCCCN)NC(=O)CNC(=O)[C@H](CC(C)C)NC(=O)[C@@H](NC(=O)[C@@H]1CSSC[C@H](N)C(=O)N[C@@H](CO)C(=O)N[C@@H](CC(N)=O)C(=O)N[C@@H](CC(C)C)C(=O)N[C@@H](CO)C(=O)N[C@@H]([C@@H](C)O)C(=O)N1)C(C)C)C(=O)N[C@@H](CO)C(=O)N[C@@H](CCC(N)=O)C(=O)N[C@@H](CCC(=O)O)C(=O)N[C@@H](CC(C)C)C(=O)N[C@@H](Cc1c[nH]cn1)C(=O)N[C@@H](CCCCNC(=O)COCCOCCNC(=O)COCCOCCNC(=O)CC[C@H](NC(=O)CCCCCCCCCCCCCCCCCCCCC(=O)O)C(=O)O)C(=O)N[C@@H](CC(C)C)C(=O)N[C@@H](CCC(N)=O)C(=O)N[C@H](C(=O)N[C@@H](Cc1ccc(O)cc1)C(=O)N1CCC[C@H]1C(=O)N[C@@H](CCCNC(=N)N)C(=O)N[C@H](C(=O)N[C@@H](CC(N)=O)C(=O)N[C@H](C(=O)NCC(=O)N[C@@H](CO)C(=O)NCC(=O)N[C@H](C(=O)N1CCC[C@H]1C(N)=O)[C@@H](C)O)[C@@H](C)O)[C@@H](C)O)[C@@H](C)O [Compound 21, Cys-Ser-Asn-Leu-Ser-Thr-Cys-Val-Leu-Gly-Lys-Leu-Ser-Gln-Glu-Leu-His-Lys(AEEA-AEEA-γGlu-docosanedioic acid)-Leu-Gln-Thr-Tyr-Pro -Arg-Thr-Asn-Thr-Gly-Ser-Gly-Thr-Pro-NH2] |
| – | 316.7% | CC(C)C[C@H](NC(=O)[C@H](CCCCN)NC(=O)CNC(=O)[C@H](CC(C)C)NC(=O)[C@@H](NC(=O)[C@@H]1CSSC[C@H](N)C(=O)N[C@@H](CO)C(=O)N[C@@H](CC(N)=O)C(=O)N[C@@H](CC(C)C)C(=O)N[C@@H](CO)C(=O)N[C@@H]([C@@H](C)O)C(=O)N1)C(C)C)C(=O)N[C@@H](CO)C(=O)N[C@@H](CCC(N)=O)C(=O)N[C@@H](CCC(=O)O)C(=O)N[C@@H](CC(C)C)C(=O)N[C@@H](Cc1c[nH]cn1)C(=O)N[C@@H](CCCCNC(=O)COCCOCCOCCOCCNC(=O)CC[C@H](NC(=O)CCCCCCCCCCCCCCCCCCC(=O)O)C(=O)O)C(=O)N[C@@H](CC(C)C)C(=O)N[C@@H](CCC(N)=O)C(=O)N[C@H](C(=O)N[C@@H](Cc1ccc(O)cc1)C(=O)N1CCC[C@H]1C(=O)N[C@@H](CCCNC(=N)N)C(=O)N[C@H](C(=O)N[C@@H](CC(N)=O)C(=O)N[C@H](C(=O)NCC(=O)N[C@@H](CO)C(=O)NCC(=O)N[C@H](C(=O)N1CCC[C@H]1C(N)=O)[C@@H](C)O)[C@@H](C)O)[C@@H](C)O)[C@@H](C)O [Compound 4, Cys-Ser-Asn-Leu-Ser-Thr-Cys-Val-Leu-Gly-Lys-Leu-Ser-Gln-Glu-Leu-His-Lys(PEG4CH2CO-yGlu-eicosanedioic acid)-Leu-Gln-Thr-Tyr-Pro-Arg-Thr-Asn-Thr-Gly-Ser-Gly-Thr-Pro-NH2] |
| 3.7 pM | – | CC(C)C[C@H](NC(=O)[C@H](CCCCN)NC(=O)CNC(=O)[C@H](CC(C)C)NC(=O)[C@@H](NC(=O)[C@@H]1CSSC[C@H](N)C(=O)N[C@@H](CO)C(=O)N[C@@H](CC(N)=O)C(=O)N[C@@H](CC(C)C)C(=O)N[C@@H](CO)C(=O)N[C@@H]([C@@H](C)O)C(=O)N1)C(C)C)C(=O)N[C@@H](CO)C(=O)N[C@@H](CCC(N)=O)C(=O)N[C@@H](CCC(=O)O)C(=O)N[C@@H](CC(C)C)C(=O)N[C@@H](Cc1c[nH]cn1)C(=O)N[C@@H](CCCCNC(=O)COCCOCCNC(=O)COCCOCCNC(=O)CC[C@H](NC(=O)CCCCCCCCCCCCCCCCC(=O)O)C(=O)O)C(=O)N[C@@H](CC(C)C)C(=O)N[C@@H](CCC(N)=O)C(=O)N[C@H](C(=O)N[C@@H](Cc1ccc(O)cc1)C(=O)N1CCC[C@H]1C(=O)N[C@@H](CCCNC(=N)N)C(=O)N[C@H](C(=O)N[C@@H](CC(N)=O)C(=O)N[C@H](C(=O)NCC(=O)N[C@@H](CO)C(=O)NCC(=O)N[C@H](C(=O)N1CCC[C@H]1C(N)=O)[C@@H](C)O)[C@@H](C)O)[C@@H](C)O)[C@@H](C)O [Compound 19, Cys-Ser-Asn-Leu-Ser-Thr-Cys-Val-Leu-Gly-Lys-Leu-Ser-Gln-Glu-Leu-His-Lys(AEEA-AEEA-γGlu-octadecanedioic acid)-Leu-Gln-Thr-Tyr-P ro-Arg-Thr-Asn-Thr-Gly-Ser-Gly-Thr-Pro-NH2] |
